Legend:
SARS-CoV-2 = conditions: in vivo; cited from earlier work
RdRp (Nsp12 domain) = RdRp (Nsp12 domain) (Severe acute respiratory syndrome coronavirus 2, UniProt P0DTD1); assay: biochemical; type: binding, SARS-CoV-2

Cn1cnc(Cn2c(=O)[nH]/c(=N\c3cc4cn(C)nc4cc3Cl)n(Cc3cc(F)c(F)cc3F)c2=O)n1 [Ensitrelivir]
decrease viral clearance (SARS-CoV-2): 50 h

N#C[C@@]1(c2ccc3c(N)ncnn23)O[C@H](COP(=O)(O)OP(=O)(O)OP(=O)(O)O)[C@@H](O)[C@H]1O [GS-443902]
binding to Nsp12 (in words) (RdRp (Nsp12 domain)): could not detect binding

Cc1ccc(C(=O)Nc2ccc(S(=O)(=O)O)c3cc(S(=O)(=O)O)cc(S(=O)(=O)O)c23)cc1NC(=O)c1cccc(NC(=O)Nc2cccc(C(=O)Nc3cc(C(=O)Nc4ccc(S(=O)(=O)O)c5cc(S(=O)(=O)O)cc(S(=O)(=O)O)c45)ccc3C)c2)c1 [Suramin]
Kd (RdRp (Nsp12 domain)): 827 ± 306 nM

Cc1ccc(NC(=O)c2ccc(nc2O)C2CC2)c(O)c1
binding to Nsp12 (in words) (RdRp (Nsp12 domain)): led to Nsp12 aggregation, so no KD could be determined

FC(F)(F)c1ccc2nnc(CNC(=O)c3ccc4 C(=O)N5CCC-CCC5=Nc4c3)n2c1
binding to Nsp12 (in words) (RdRp (Nsp12 domain)): led to Nsp12 aggregation, so no KD could be determined

Nc1nnnn1-c1cccc(c1)C(=O)NCc1cc(F)ccc1Oc1ccc(F)c-c(Cl)c1
binding to Nsp12 (in words) (RdRp (Nsp12 domain)): led to Nsp12 aggregation, so no KD could be determined

— publication PMC11299051 (Molecular informatics, 2023)
